# Data: US11603382B2, “Diastereoselective synthesis of phosphate derivatives” (NuCana plc, priority 2015, dated 2023)
# Tests used:
# [1] = tested on: isolated human hepatic cells; experiment: half-life on incubation with isolated human hepatic cells; assay type: in vitro ADME
# Description: The longer half-life associated with (R)-isomer indicates a lower intrinsic clearance and should result in a different pharmacokinetic and pharmacodynamic profile to the (S)-isomer which may offer some benefits.
# [2] = solubility in mixtures of polar organic solvents with water; assay type: physicochemical
# Description: It has recently been discovered that the (S)-epimer of gemcitabine-[phenyl-benzoxy-L-alaninyl)]-phosphate has sufficient solubility in mixtures of a number of polar organic solvents with water to render it suitable for formulation and administration as a therapeutic agent. […] In certain solvent mixtures the difference in solubility between the (S)-epimer and the (R)-epimer is over 100 fold. It is expected therefore that more clinically effective, practical and patient friendly administration methods can be developed using the (S)-epimer than can be developed using the (R)-epimer or using the mixture. It is thus desirable to be able to provide gemcitabine-[phenyl-benzoxy-L-alaninyl)]-(S)-phosphate in substantially diastereoisomerically pure form.
# solubility in water = assay type: physicochemical; conditions: regardless of salt content or pH
# Description: NUC-1031 is extremely lipophillic and thus poorly water soluble (by calculation: <0.1 mg/mL), and the ionisable moieties have calculated pKas which lie out-side the pH range suitable for parenteral administration. […] It also has implications for the development of efficient manufacturing processes which will allow NUC-1031 to be produced cost effectively.
smiles,measurement,setting,value
C[C@H](N[P@@](=O)(OC[C@H]1O[C@@H](n2ccc(N)nc2=O)C(F)(F)C1O)Oc1ccccc1)C(=O)OCc1ccccc1 (stereo partly drawn) [(R)-epimer],half-life relative to that of the (S)-epimer,[1],four times
same,solubility relative to the (S)-epimer,[2]; mixtures of polar organic solvents with water,considerably lower
C[C@H](N[P@](=O)(OC[C@H]1O[C@@H](n2ccc(N)nc2=O)C(F)(F)C1O)Oc1ccccc1)C(=O)OCc1ccccc1 (stereo partly drawn) [(S)-epimer],difference in solubility between the (S)-epimer and the (R)-epimer,"[2]; in certain solvent mixtures (polar organic solvents with water), (S)-epimer over (R)-epimer",over 100 fold
"C[C@H](NP(=O)(OC[C@H]1O[C@@H](n2ccc(N)nc2=O)C(F)(F)C1O)Oc1ccccc1)C(=O)OCc1ccccc1 (stereo partly drawn) [NUC-1031, 2′-deoxy-2′,2′-difluoro-D-cytidine-5′-O-[phenyl(benzoxy-L-alaninyl)] phosphate]",solubility in water,solubility in water,essentially insoluble in water
